Measurements: publication PMC6204753, “Non-native autoinducer analogs capable of modulating the SdiA quorum sensing receptor in Salmonella enterica serovar Typhimurium” (Beilstein Journal of Organic Chemistry, 2018)

Target: SdiA (Salmonella enterica subsp. enterica serovar Typhimurium, UniProt O66040)
Assay: S. Typhimurium-pJNS25 SdiA reporter, competitive antagonism against 10 nM L-OOHL
Type: cell-based
Conditions: for Antagonism 1 μM Inhibition (%): 1 μM compound; for Antagonism 1 μM Inhibition (%) / Antagonism 100 μM Inhibition (%): average ± STD, change in activity from 10 nM 2 (OOHL); for Antagonism 100 μM Inhibition (%): 100 μM compound
From the text: Biological assays for SdiA activity. Cell-based reporter strains that rely on detecting the transcriptional activity of LuxR-type receptors are commonly used to assess the activity of exogenous ligands. We used the S. Typhimurium-pJNS25 reporter strain constructed by Smith and Ahmer and also used by Janssens et al. to examine SdiA activity. This strain naturally produces SdiA and contains a reporter plasmid with the promoter region for srgE fused to the luxABCDE operon of V. fischeri (see Experimental section for details of all strains and plasmids). SdiA activity is thus reported by the production of luciferase and resulting bioluminescence. We also prepared an SdiA reporter in E. coli (JLD271-pJN105SE-pSC11SE) to examine S. Typhimurium SdiA activity in an alternate background and with a different reporter gene output. […] This reporter construct uses an arabinose inducible promoter to produce S. Typhimurium SdiA and the promoter region for srgE fused to lacZ to report SdiA activity. SdiA activity is then measured using standard β-galactosidase assays. In both reporter strains, signal was normalized to the difference between the positive control (10 μM OOHL) and the negative control (1% DMSO; no compound).
Salmonella SdiA reporter assay. S. Typhimurium-pJNS25 was grown 16–18 h overnight in LB, diluted 1:100 in fresh LB medium, and then incubated for 6 h at 37 °C with shaking at 200 rpm in the presence of compounds (1% DMSO). […] All compounds were screened at 100 μM and 1 μM in triplicate in agonism and antagonism assays. […] Dose–response analyses were performed by preparing dilutions of compounds in DMSO and testing each concentration in the agonism or antagonism assays. Competition dose–response assays (data in Figure 5) were performed in the same manner as the antagonism assays, except instead of OOHL being added to the subculture, the antagonist being tested was added. Non-linear regression curve fits were generated using GraphPad Prism software (version 6) using variable slope (four parameter) dose–response analysis.

Chain of SdiA (O66040 entry or part of it): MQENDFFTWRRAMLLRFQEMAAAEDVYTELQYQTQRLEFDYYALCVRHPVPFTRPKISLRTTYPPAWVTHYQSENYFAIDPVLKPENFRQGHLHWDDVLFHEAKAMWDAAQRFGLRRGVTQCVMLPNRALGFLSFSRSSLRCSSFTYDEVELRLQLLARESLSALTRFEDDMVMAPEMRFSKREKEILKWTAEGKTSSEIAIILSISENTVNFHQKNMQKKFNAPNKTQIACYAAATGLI

SMILES | Antagonism 1 μM Inhibition (%) | Antagonism 100 μM Inhibition (%) | SdiA antagonism (in words) (S. Typhimurium reporter)
O=C(CCc1ccc([N+](=O)[O-])cc1)N[C@H]1CCOC1=O [E37] | 34 ± 5 | 23 ± 5 | –
O=C(N[C@H]1CCOC1=O)c1ccc(I)cc1 [Q5] | 28 ± 10 | -14 ± 10 | –
CCCCCCCCCCCCCC(=O)N[C@H]1CCOC1=O [H26] | 5 ± 14 | 0 ± 8 | failed to inhibit SdiA
O=C(CC(=O)N[C@H]1CCOC1=O)Cc1cccc(Cl)c1 [H23] | 12 ± 8 | 1 ± 9 | –
CCCCCS(=O)(=O)N[C@H]1CCOC1=O [A9] | 10 ± 9 | 13 ± 2 | –
O=C(CCc1ccc(C(F)(F)F)cc1)N[C@H]1CCOC1=O [compound 9, reference compound] | 32 ± 10 | 11 ± 16 | –
O=C(Cc1ccccc1[N+](=O)[O-])N[C@H]1CCOC1=O [C15] | 5 ± 2 | -17 ± 18 | –
O=C(CC(O)Cc1cccc(I)c1)N[C@H]1CCOC1=O (stereo partly drawn) [H15] | 6 ± 14 | 19 ± 11 | –
CCCCCCCCc1ccc(C(=O)N[C@H]2CCOC2=O)cc1 [D13] | 17 ± 7 | 23 ± 7 | –
CCCCCCC(=O)N[C@H]1CCOC1=O [compound 4, reference compound] | 26 ± 4 | 16 ± 5 | –
CCCCCCCCCC(=O)CC(=O)Nc1cccc(OC)c1 [compound 14, reference compound] | 22 ± 19 | 12 ± 8 | –
O=C(Cc1ccccc1)N[C@H]1CCSC1=O [F9] | -1 ± 4 | -13 ± 1 | –
O=C(Cc1cccc([N+](=O)[O-])c1)NC1CCCC1 [F18] | 4 ± 6 | 15 ± 3 | –
CCCCCC(=O)N[C@H]1CCSC1=O [F7] | 7 ± 9 | -12 ± 4 | –
O=C(N[C@H]1CCOC1=O)c1ccccc1Br [Q1] | 2 ± 5 | -3 ± 18 | –
O=C(CCc1cccc([N+](=O)[O-])c1)N[C@H]1CCOC1=O [E38] | 15 ± 11 | 32 ± 6 | –
O=C(N[C@H]1CCOC1=O)c1ccc(-c2csnn2)cc1 [D10] | 23 ± 6 | 14 ± 12 | –
CC(C)(C)OC(=O)Nc1ccc(C(=O)N[C@H]2CCOC2=O)cc1 [Q13] | 19 ± 8 | -14 ± 2 | –
O=C(Cc1c(F)c(F)c(F)c(F)c1F)N[C@H]1CCOC1=O [C16] | 5 ± 3 | -32 ± 18 | –
O=C(C=Cc1ccccc1)NC1CCOC1=O (stereo not drawn) [B10] | 16 ± 5 | -56 ± 11 | –
O=C(Cc1ccc(Cl)cc1)N[C@H]1CCOC1=O [C5] | 13 ± 6 | 18 ± 7 | –
COc1cccc(CC(=O)N[C@H]2CCOC2=O)c1 [E2] | -5 ± 1 | -8 ± 14 | –
O=C(N[C@H]1CCOC1=O)c1ccc(F)cc1 [Q3] | 34 ± 2 | -26 ± 17 | –
O=C(N[C@H]1CCOC1=O)c1ccc(-c2ccccc2)cc1 [Q12] | 20 ± 9 | 26 ± 14 | –
CCCOc1ccc(C(=O)N[C@H]2CCOC2=O)cc1 [R2] | 16 ± 9 | 11 ± 6 | –
